These results are taken from ChEMBL document CHEMBL3272282, “Adrenergic agents. 6. Synthesis and potential beta-adrenergic agonist activity of some meta-substituted p-hydroxyphenylethanolamines related to salbutamol” (J Med Chem, 1977).

The species named for series [1] is Cavia porcellus. The series can be described thus: Agonist activity at beta-adrenoceptor in guinea pig trachea assessed as relaxation of spontaneously contracted tracheal smooth muscle. The format is tissue-based.
Series [2] can be described thus: Agonist activity at beta-adrenoceptor in guinea pig atria assessed as cardiac stimulant activity by measuring change in rate of contraction of right atrial muscle. The format is tissue-based, Cavia porcellus, Cardiac atrium.
A short description of series [3]: Agonist activity at beta-adrenoceptor in guinea pig atria assessed as cardiac stimulant activity by measuring change in rate of contraction of right atrial muscle at 14 uM. In kind it is tissue-based, Cavia porcellus, Cardiac atrium.
For series [4], the species on record is Cavia porcellus. The series can be described thus: Agonist activity at beta-adrenoceptor in guinea pig trachea assessed as relaxation of spontaneously contracted tracheal smooth muscle at 12 uM. The format is tissue-based. More on the design: scale not given: the % may be the effect or the level left.
For series [5], the species on record is Cavia porcellus. The series can be described thus: Intrinsic activity at beta-adrenoceptor in guinea pig trachea assessed as relaxation of spontaneously contracted tracheal smooth muscle relative to papaverine. The format is tissue-based.
Series [6] can be described thus: Separation ratio of ED25 at beta-adrenoceptor in guinea pig atria to ED50 for beta-adrenoceptor in guinea pig trachea. Also on record: species or system Cavia porcellus.
Series [7] is described as follows: Agonist activity at beta-adrenoceptor in guinea pig atria assessed as cardiac stimulant activity by measuring change in rate of contraction of right atrial muscle at 0.12 mM. Particulars: 120 µM. The format is tissue-based, Cavia porcellus, Cardiac atrium.
The nature of series [8]: Agonist activity at beta-adrenoceptor in guinea pig atria assessed as cardiac stimulant activity by measuring change in rate of contraction of right atrial muscle at 92 uM. The format is tissue-based, Cavia porcellus, Cardiac atrium.
Series [9] in a line: Agonist activity at beta-adrenoceptor in guinea pig atria assessed as cardiac stimulant activity by measuring change in rate of contraction of right atrial muscle at 0.11 mM. The format is tissue-based, Cavia porcellus, Cardiac atrium. The settings on record: 110 µM.
Series [10] is described as follows: Intrinsic activity at beta-adrenoceptor in guinea pig atria assessed as cardiac stimulant activity by measuring change in rate of contraction of right atrial muscle relative to isoproterenol. In kind it is ADME, tissue-based, Cavia porcellus, Cardiac atrium.
Series [11] is described as follows: Agonist activity at beta-adrenoceptor in guinea pig atria assessed as cardiac stimulant activity by measuring change in rate of contraction of right atrial muscle at 56 uM. In kind it is tissue-based, Cavia porcellus, Cardiac atrium.
The species entered for series [12] is Cavia porcellus. The series is described as follows: Agonist activity at beta-adrenoceptor in guinea pig trachea assessed as relaxation of spontaneously contracted tracheal smooth muscle at 11 uM. Also on record: scale not given: the % may be the effect or the level left. In kind it is tissue-based.

Structures are written as SMILES.

Regarding `CC(C)(C)NCC(O)c1ccc(O)c(C(O)CS(C)(=O)=O)c1` (configuration not stated), in series [1], the ED50 was found to be 1.2 ×10⁻⁵ M. The ED25 in series [2] was 1.4 ×10⁻⁵ M. The figures for the Activity in series [3] and in [4] were 0% and 34%, respectively.

As for `COCC(O)c1cc(C(O)CNC(C)(C)C)ccc1O` (configuration not stated), the Ratio was found to be 0.9 in series [5] and 236 in series [6]. Also, the ED50 in [1] is 5.3 ×10⁻⁷ M. In addition, the ED25 in series [2] worked out at 1.2 ×10⁻⁴ M. In addition, in series [7], the Activity is reported as 23%.

On to `CC(C)(C)NCC(O)c1ccc(O)c(C(O)CNC(C)(C)C)c1` (configuration not stated), for which the Ratio is 0.9 in series [5] and above 6 in [6]. Moreover, in series [1], the ED50 came to 1.5 ×10⁻⁵ M. In addition, the Activity in series [8] amounted to 14%. Also, the ED25 in series [2] was determined as 9.2 ×10⁻⁵ M.

As for `COC(CO)c1cc(C(O)CNC(C)(C)C)ccc1O` (configuration not stated), the Ratio in [5] was 0.7; in [6], above 320. Further, in series [1], the ED50 is 3.4 ×10⁻⁷ M. In series [9], the Activity amounted to 0%.

`CC(C)(C)NCC(O)c1ccc(O)c(C(O)CO)c1` (configuration not stated): the figures for the Ratio in [5], in series [10] and in [6] were 1, 0.3 and 303, respectively. The ED50 in [1] is 9.9 ×10⁻⁸ M. The ED25 in [2] came to 3 ×10⁻⁵ M.

Take `CC(C)(C)NCC(O)c1ccc(O)c(C(C)(C)O)c1` (configuration not stated): the ED50 in [1] was found to be 1.1 ×10⁻⁵ M. The Activity was found to be 8% in series [11] and 30% in series [12].

Consider `CC(C)(C)NCC(O)c1ccc(O)c(O)c1` (configuration not stated) [COLTEROL], for which the results for the Ratio in series [5], in [10] and in [6] were 1, 1 and 5.5, respectively. In [1], the ED50 stood at 1.3 nM. In series [2], the ED25 amounted to 7.1 nM.

`CC(C)(C)NCC(O)c1ccc(O)c(CO)c1` (configuration not stated) [ALBUTEROL]: the Ratio came out at 1 in series [5], 0.7 in series [10] and 28 in series [6]. The ED50 in series [1] worked out at 1.1 ×10⁻⁸ M.

Take `CC(C)NCC(O)c1ccc(O)c(O)c1` (configuration not stated) [ISOPROTERENOL]: in series [5], the Ratio worked out at 1. Further, the ED50 in series [1] stood at 7.1 nM.

Consider `CC(O)c1cc(C(O)CNC(C)(C)C)ccc1O` (configuration not stated), for which the Ratio in [5] came to 1; in series [10], 0.3; in [6], 289. Also, the ED50 in series [1] was 1.8 ×10⁻⁸ M. In [2], the ED25 came to 5200 nM.
